# Measurements from patent publication US11918587B2, “Treatment of cancer with a RAF inhibitor” (Kinnate Biopharma Inc., priority 2021, dated 2024).
# Where two headings read alike, the source gives them in different places.
# Tests used:
# [1] = test system: WM3629 (Class III BRAF mutant) melanoma xenograft; experiment: WM3629 melanoma xenograft, Compound 1 with binimetinib QD (Example 3C); format: in vivo, mouse; conditions: 10 mg/kg QD single agent, 14 days
# Description: Mice were assigned to respective groups based on their starting tumor volume and body weight such that the average values were the same for each treatment group.
# [2] = test system: SK-MEL-2 (NRAS Q61R mutant) melanoma xenograft; experiment: SK-MEL-2 melanoma xenograft, Compound 1 with binimetinib; format: in vivo, mouse
# [3] = test system: WM3629 (NRAS mutant, Class III BRAF mutant) melanoma xenograft; experiment: WM3629 melanoma xenograft, compound 1 with binimetinib BID (Example 6); format: in vivo, mouse
# in vivo = conditions: athymic nude, mouse, plasma, oral
# [4] = plasma exposure in SK-MEL-2 xenograft study; conditions: mouse, oral
# [5] = plasma exposure in WM3629 BID combination study (Example 6); conditions: athymic BALB/c nude, mouse, oral, 3 mg/kg
# [6] = test system: SK-MEL-2 human melanoma cells; experiment: 7-day CellTiter-Glo growth assay with binimetinib combination and synergy analysis; format: cell-based; conditions: SK-MEL-2, 168 h
# Protocol: SK-MEL-2 human melanoma cells were obtained from American Type Culture Collection and maintained in DMEM+10% FBS+1% penicillin/streptomycin. All cells were maintained in a humidified incubator at 37° C. with 5% carbon dioxide (CO2). […] Plates were removed from the incubator and equilibrated at room temperature for 15 minutes. Then, 100 μL of CellTiter-Glo (CTG) reagent was added into each well to be detected (at 1:1 to culture medium). The plates were kept at room temperature for 30 minutes followed by reading on a plate reader. […] Highest single agent (HSA), Bliss, and Loewe synergy models were assessed and utilized to find the most synergistic area score, where scores >10 indicate that the interaction between the two drugs is likely to be synergistic.
# [7] = plasma exposure in mice bearing A-375 tumors; format: in vivo; conditions: athymic nude, mouse, 15-60 mg/kg PO QD, free base, 24-hour period following the last dose, read-out: systemic plasma exposures (AUClast)
# [8] = plasma exposure in mice bearing BxPC-3 and WM3629 xenografts; format: in vivo; conditions: athymic nude, mouse, po, sulfate salt form, 24-hour period following the last dose, read-out: systemic plasma exposures (AUClast)
# [9] = test system: A-375 (Class I BRAF V600E) melanoma xenograft; conditions: 60 mg/kg QD; 8 of 9 animals
# [10] = mouse, in vivo
# [11] = test system: A-375, BxPC-3, WM3629 xenografts; conditions: doses up to 60 mg/kg per day
# [12] = mouse, in vivo, po
# Protocol: For routine monitoring, all study animals were monitored for not only tumor growth but also any abnormalities of behavior and appearance such as mobility, food and water consumption, body weight, eye appearance, and any other abnormal observations. Any mortality and/or abnormal clinical signs were recorded. Body weights of all animals were measured and recorded every other day throughout the study. The measurement of tumor size was conducted with calipers and recorded three times during the first week and twice weekly during the second and third weeks. The TV (mm^3) was estimated using the formula: TV=a×b^2/2, where “a” and “b” are long and short diameters of a tumor, respectively.
# [13] = test system: NCI-H2405 (Class II BRAF mutant) NSCLC xenograft
# pERK in A-375 cells = experiment: cells; conditions: Homo sapiens, A-375, 1 h, read-out: pERK EC50
# pERK in BxPC-3 cells = experiment: cells; conditions: Homo sapiens, BXPC-3, 1 h, read-out: pERK EC50
# pERK in OV-90 cells = experiment: cells; conditions: Homo sapiens, OV-90, 1 h, read-out: pERK EC50
# pERK in NCI-H2405 cells = experiment: cells; conditions: Homo sapiens, NCI-H2405, 1 h, read-out: pERK EC50
# pERK in WM3629 cells = experiment: cells; conditions: Homo sapiens, WM3629, 1 h, read-out: pERK EC50
# pERK in CAL-12T cells = experiment: cells; conditions: Homo sapiens, 1 h, read-out: pERK EC50
# pERK in MIA PaCa-2 cells = experiment: cells; conditions: Homo sapiens, MIA PaCa-2, 1 h, read-out: pERK EC50
# pERK in CHL-1 cells = experiment: cells; conditions: Homo sapiens, CHL-1, 1 h, read-out: pERK EC50
# pERK in COLO 800 cells = experiment: cells; conditions: Homo sapiens
# pERK in Hs 294T cells = experiment: cells; conditions: Homo sapiens
# pERK in SK-MEL-28 cells = experiment: cells; conditions: Homo sapiens
# pERK in HMV-II cells = experiment: cells
# pERK in SK-MEL-30 cells = experiment: cells; conditions: Homo sapiens
# pERK in IPC-298 cells = experiment: cells; conditions: Homo sapiens
# pERK in SK-MEL-2 cells = experiment: cells; conditions: Homo sapiens
# pERK in AM-38 cells = experiment: cells; conditions: Homo sapiens
# pERK in DBTRG-05MG cells = experiment: cells; conditions: Homo sapiens
# pERK in 8505C cells = experiment: cells; conditions: Homo sapiens
# pERK in IHH-4 cells = experiment: cells
# pERK in NCI-H2087 cells = experiment: cells; conditions: Homo sapiens
# pERK in NCI-H1666 cells = experiment: cells; conditions: Homo sapiens
# pERK in Calu-6 cells = experiment: cells; conditions: Homo sapiens
# pERK in HCC1195 cells = experiment: cells
# [14] = tolerability / body weight in A-375 xenograft study
# Protocol: Mean tumor volumes and body weights are plotted, respectively; error bars denote standard error of mean. Percent change in tumor volume was calculated using the following formula: (TVf−TV0)/TV0×100%; where TVf=final tumor volume (at end of treatment) and TV0=initial tumor volume (at beginning of treatment).
# [15] = 3 mg/kg BID PO 14 days monotherapy
smiles,measurement,setting,value
"Cn1cnc2c(F)c(Nc3ccc(Br)cc3F)c(C(=O)NOCCO)cc21 [binimetinib, reference compound]",inhibition of tumor growth,[1],did not lead to significant inhibition of tumor growth
same,tumor growth inhibition,"[2]; 3 mg/kg BID single agent, 28 days",23%
same,TGI,[3]; [15],37%
same,ΔT/ΔC,[3]; [15],63%
same,Final Tumor Volume,"[3]; 3 mg/kg BID PO 14 days monotherapy, mean ± SEM",910 ± 69 mm^3
same,AUC(0-t),in vivo; 10 mg/kg,11000 to 26700 ng·h/mL
same,AUC(0-t),[4]; 3 mg/kg,7500 to 10100 ng·h/mL
same,AUC(0-t),[5],5400 to 5730 ng·h/mL
"Cc1ccc(NC(=O)N2CC[C@@H](CC(F)(F)F)C2)cc1-c1cc(N[C@H](C)CO)nc(N2CCOCC2)c1 [Compound 1, (S)-N-(3-(2-(((R)-1-hydroxypropan-2-yl)amino)-6-morpholinopyridin-4-yl)-4-methylphenyl)-3-(2,2,2-trifluoroethyl)pyrrolidine-1-carboxamide]",EC50,"[6]; read-out: Compound 1 7-Day CTG EC50, SK-MEL-2, binimetinib 0 nM (single agent, DMSO control)",0.164 µM
same,EC50,"[6]; read-out: Compound 1 7-Day CTG EC50, SK-MEL-2, binimetinib 2 nM",0.108 µM
same,EC50,"[6]; read-out: Compound 1 7-Day CTG EC50, SK-MEL-2, binimetinib 7.8 nM",0.106 µM
same,EC50,"[6]; read-out: Compound 1 7-Day CTG EC50, SK-MEL-2, binimetinib 31.3 nM",0.065 µM
same,EC50,"[6]; read-out: Compound 1 7-Day CTG EC50, SK-MEL-2, binimetinib 125 nM",0.039 µM
same,EC50,"[6]; read-out: Compound 1 7-Day CTG EC50, SK-MEL-2, binimetinib 500 nM",0.012 µM
same,AUC(0-t),[7],11900 to 156000 ng·h/mL
same,AUC(0-t),[8]; dosed orally BID (1.5-10 mg/kg),4030 to 42100 ng·h/mL
same,AUC(0-t),[8]; dosed orally QD (3-20 mg/kg),5200 to 53700 ng·h/mL
same,average TGI,[2]; 10 mg/kg BID 28 days,13%
same,average TGI,[2]; 30 mg/kg BID 28 days,135%
same,ΔT/ΔC,[3]; 1.5 mg/kg BID PO 14 days,34%
same,ΔT/ΔC,[3]; [15],21%
same,animals exhibiting tumor regressions,[9],89%
same,tolerability (on-treatment body weight changes),[10],well tolerated
same,tolerability,[11],well-tolerated
same,tolerability,[12],well-tolerated
same,ΔT/ΔC,[13]; 10 mg/kg BID PO 21 days,15%
same,ΔT/ΔC,[13]; 15 mg/kg BID PO 21 days,−7%
same,EC50,pERK in A-375 cells,0.0677 µM
same,EC50,pERK in BxPC-3 cells,0.0507 µM
same,EC50,pERK in OV-90 cells,0.026 µM
same,EC50,pERK in NCI-H2405 cells,0.0101 µM
same,EC50,pERK in WM3629 cells,0.0088 µM
same,EC50,pERK in CAL-12T cells,0.0184 µM
same,EC50,pERK in MIA PaCa-2 cells,0.685 µM
same,EC50,pERK in CHL-1 cells,0.58 µM
same,EC50,pERK in COLO 800 cells,0.0995 µM
same,EC50,pERK in Hs 294T cells,0.0769 µM
same,EC50,pERK in SK-MEL-28 cells,0.107 µM
same,EC50,pERK in HMV-II cells,0.0446 µM
same,EC50,pERK in SK-MEL-30 cells,0.0959 µM
same,EC50,pERK in IPC-298 cells,0.267 µM
same,EC50,pERK in SK-MEL-2 cells,0.139 µM
same,EC50,pERK in AM-38 cells,0.0414 µM
same,EC50,pERK in DBTRG-05MG cells,0.0605 µM
same,EC50,pERK in 8505C cells,0.0771 µM
same,EC50,pERK in IHH-4 cells,0.0531 µM
same,EC50,pERK in NCI-H2087 cells,0.0954 µM
same,EC50,pERK in NCI-H1666 cells,0.0329 µM
same,EC50,pERK in Calu-6 cells,0.2 µM
same,EC50,pERK in HCC1195 cells,0.0833 µM
same,AUC(0-t),in vivo; 30 mg/kg,31100 to 123000 ng·h/mL
same,AUC(0-t),[4]; 30 mg/kg,29900 to 96100 ng·h/mL
same,average weight loss,[14]; 60 mg/kg QD,5.6%
same,weight loss of one animal during the course of treatment,"[14]; 60 mg/kg cohort, recovered by end of study",> 10%
same,AUC(0-t),[5],2530 to 6750 ng·h/mL
